In patent US20200397860A1, “SLIT AND BONE GROWTH MODULATION” (Cornell University, priority 2018, published 2020):

Assays:
[1] = tested on: bone marrow endothelial progenitor outgrowth cells (EPOCs); experiment: Matrigel tube formation assay; format: cell-based, mouse; conditions: EPOCs transduced with YAP shRNA
Method: Mouse bone marrow derived late-stage endothelial progenitor outgrowth cells (EPOCs) were obtained from BioChain (7030031) and cultured in growth medium (BioChain Z7030035) as described previously (Xie et al. 2014). Endothelial cell migration assay was set up in Trans well-24 well plates with 8-um pore filters. Briefly, 1×10^5 cells/well after 1-hour serum starvation were seeded in the upper chamber, then incubated with conditioned medium from osteoblasts and control in the lower chambers for a further 3 h. The cells in the upper surface of each filter were removed with cotton swabs. The cells that migrated into the lower surface were fixed with 4% PFA for 30 min and then stained with crystal violet. The cell numbers were quantified by counting a centered microscope field per each filter (5 wells for each condition). Endothelial cell wound healing assays were conducted in 12-well plates precoated with gelatin (Stemcell Technologies). 3×10^5 cells/well were plated overnight and stimulated with a wound in the form of a single linear scratch made with a yellow pipette tip. After gently washing the well twice, cells were cultured in medium with SLIT3 or vehicle. At 6 and 12 hours after injury, cells were stained by 0.5% crystal violet and photographed. The width of the wound area was quantitatively evaluated using ImageJ (see website at rsb.info.uih.gov/ij/download.html). Endothelial cell proliferation assays were conducted in 96-well plates pre-coated with gelatin (Stemcell Technologies). EPOCs (3×10^4 cells/well) were seeded in the medium with a serial dilution of SLIT3 protein or vehicle in plates. At 0, 24, 48 hours after seeding, cells were incubated with 10-fold diluted Alamar Blue solution (Thermo Fisher) and the supernatant was evaluated with a spectrophotometer (Thermo) (5 wells for each condition). Endothelial cell tube formation assay was conducted in 96-well plates pre-coated with Matrigel (BD). After 1 h serum starvation, EPOCs (3×10^4 cells/well) were seeded in conditioned medium dilution or control medium on polymerized Matrigel in plates. Alter 5 hours incubation at 37° C., the number of tube branches each well was observed and quantified by counting four random fields per well with microscopy (5 wells for each condition).

[2] = tested on: CD31^hiEMCN^hi endothelium; experiment: Flow cytometry of skeletal CD31hiEMCNhi endothelium in femurs after IV injection; format: in vivo, mouse; conditions: 8-week-old B6 mice, twice weekly IV 1 mg/kg, 21 days, femur
Method: Femur and tibia were dissected from mutant mice and control groups after removing surrounding connective tissues. The metaphysis region and diaphysis regions of bone was crushed in Hanks Balanced Salt Solution (Life Technologies) containing 10 mM HOPES (pH 7.2) (CellGro) and enzymatically digested with 2.5 mg/mL Collagenase A (Roche) and 1 unit/mL Dispase II (Roche) for 15 minutes at 37° C. under gentle agitation. The resulting cell suspensions were filtered (40 μm), washed using PBS (pH 7.2) containing 0.5% BSA (Fraction V) and 2 mM EDTA. After washing, equal numbers of cells per mouse were blocked with Purified Rat Anti-Mouse CD16/CD32 (BD Biosciences) for 30 min on ice, then stained with APC-conjugated EMCN antibody (ebioscience 50-5851-80), PE-conjugated CD31 (ebioscience 12-0311-81). FITC-conjugated CD45 (Tonbo 35-0451), APC/Cy7-conjugated Ter119 (Biolegend 116223) and PerCP-Cy5.5-conjugated CD146 (BD Biosciences 562231) for 45 min on ice. After washing, cells were resuspended in PBS (pH 7.2) with 2 mM EDTA and 1 μg/mL 4-6,Diamidino-2-Phenylindole (DAPI) (live/dead exclusion) for analysis on an LSRII flow cytometer system (BD Biosciences) cytometer and analyzed using FlowJo software (TreeStar). Cell sorting was performed with a FACS Aria II SORP cell sorter (Becton Dickinson) at Weill Cornell Medical College, with exclusion of DAPI^+ cells and doublets. […]

[3] = tested on: murine ovariectomy (OVX) model of postmenopausal osteoporosis; experiment: Ovariectomy (OVX) induced bone loss, prophylactic model; format: in vivo, mouse; conditions: L3 vertebrae
Method: Micro-CT (μCT) analysis was conducted on a Scanco Medical μCT 35 system at the Citigroup Biomedical Imaging Core using the previously described parameters. (Shim et al. 2013). μCT analysis was performed by an investigator blinded to the genotypes of the animals under analysis.
For histomorphometry, mice were injected with calcein (25 mg/kg, Sigma), and undecalcified sections of the lumbar vertebrae were stained using von Kossa and TRAP as described by Fukuda et al. (2013). Static and dynamic histomorphometric analysis was performed with using the Osteomeasure Analysis System (Osteometrics) following standard nomenclature as described (Dempster et al. 2013). Bone volume/total volume (BV/TV), bone formation rate/bone surface (BFR/BS, μm^3 […] yr^−1), mineral apposition rate (MM, um Day^−1), osteoblast surface/bone surface (Ob.S/BS, %) and osteoclast number/bone perimeter (No. OC/Bpm) were analyzed.
For the prophylactic model, 12-week-old female mice (JAX) were anesthetized and bilaterally ovariectomized or sham operated. Ovariectomized mice were given twice weekly intravenous injections of 1 mg per kg body weight of SLITS or vehicle or daily subcutaneous (sc) injections of 80 ug/kg PTH (1-34) for 6 weeks starting 2 weeks after ovariectomy. […] All mice were then randomly assigned to one of four groups: Sham, OVX+vehicle, OVX+SLITS and OVX+PTH. Three days after the last injection, all of the mice were euthanized and subjected to bone analysis as described earlier.

Substance: FGF2: FGF2, positive control inducer of tube formation [reference compound]
- ability to induce tube formation after shRNA-mediated knockdown of YAP [1]: not

Substance: SLIT2: recombinant SLIT2 protein, SLIT family ligand
- levels of skeletal CD31hiEMCNhi endothelium in vivo [2]: increased formation

Substance: PTH: parathyroid hormone PTH (1-34), daily subcutaneous injections, comparator in OVX model (SVSEIQLMHNLGKHLNSMERVEWLRKKLQDVHNF; Parathyroid hormone; UniProt P01270 32-65, looked up, fragment) [reference compound]
- endosteal CD31hiEMCNhi endothelium after OVX [3]: reversed the attenuation
- endosteal bone formation [3]: rescued
